Laboratory results published in patent EP0103877A1, “Phosphate derivatives, process for preparation thereof and pharmaceutical compositions of the same” (FUJISAWA PHARMACEUTICAL CO., LTD., priority 1982, dated 1984).

What follows are molecules tested on Fibrosarcoma Meth A (assay: Anti-tumor activity against Fibrosarcoma Meth A in mice (mean survival time, T/C)). Settings: T/C x 100 of mean survival time (medicated vs control group); female BALB/c mice inoculated intrapleurally with 5 x 10^5 Meth A cells; compound injected into pleural cavity, 100 pg/0.05 ml/mouse three times (before 14 days, after 1 hour and after 3 days of tumor implantation).
Assay type: in vivo
Protocol: Groups of eight female BALB/c mice, aged 8-9 weeks and weighing 18.0-22.5 g were used.
Fibrosarcoma Meth A (hereinafter referred to as Meth A) was successively transferred every 7 days into BALB/c mice by intraperitoneal inoculation of the ascites cells thereof and the Meth A in the ascites cells as harvested 6 or 7 days after the inoculation was used as tumor cells.
Each of the BALB/c mice was inoculated intrapleurally with 5 x 10^5 Meth A cells in 0.1 ml Hanks solution.
Test compound was dissolved in phosphate buffer saline solution, and was injected into pleural cavity to each of the mice in doses of 100 pg/0.05 ml/mouse three times, i.e. before 14 days, after 1 hour and after 3 days of tumor implantation.
The control group was given with a vehicle alone in the same way.
The antitumor activity of the test compound was estimated by comparing mean survival time of the two groups. • T : Mean survival time of the medicated group • C : Mean survival time of the control group
CCCCCCCCCCCCCCCCCCOCC(COP(=O)([O-])OCC[N+](C)(C)C)OC (racemic) [Control Compound, (rac)-1-O-Octadecyl-2-0-methyl-glycerol-3-phosphorylcholine, reference compound] was tested, and the “Anti-tumor activity *a (%)” value was 302.8%.
In the case of CCCCCCCCCCCCCCCCCCO[C@H]1[C@@H](O)[C@H](OC)O[C@@H]1COP(=O)([O-])OCC[N+](C)(C)C [Ex 6-(7), Methyl 3-O-octadecyl-β-D-ribofuranoside 5-(choline phosphate)], the “Anti-tumor activity *a (%)” value is reported as 383%.
With CCCCCCCCCCCCCCCCCCO[C@@H]1[C@@H](OC)[C@@H](OC)O[C@@H]1COP(=O)([O-])OCC[N+](C)(C)C [Ex 4-(3), Methyl 2-0-methyl-3-0-octadecyl-a-D-xylofuranoside 5-(choline phosphate)] the “Anti-tumor activity *a (%)” value was 408%.
